In patent US8012929B2, “Peptides directed for diagnosis and treatment of amyloid-associated diseases” (Tel Aviv University Future Technology Development L.P., priority 2002, dated 2011):
Square brackets hold non-standard residues; d marks the D form. Peptide text beside a SMILES is read from it. Aib = CC(C)(N)C(=O)O

Key:
in vivo = conditions: CD-1, mouse
Experimental: Animals were treated following a 4 hour fast, with water ad libitum, and fed 2 hours after administration. Thereafter, animals were sacrificed at different time intervals (5 minutes-8 hours; 3 animals in each group, at every time interval were sacrificed by sodium pentobarbital anesthesia followed by exanguination) and blood (plasma), brain, liver, kidney and pancreas were collected and later analyzed. Plasma and brain tissue samples were analyzed by high-performance liquid chromatography with tandem mass spectrometry (LC-MS/MS).
In case of brain tissue, only AUC0-4 was calculated. All parameters were calculated using the software PK solutions Version 2.0 for Noncompartmental Pharmacokinetics Data analysis (Summit Research Services, Montrose, Colo.).

PC-12 cells = assay: Inhibition of β-amyloid cytotoxicity in PC-12 cells (MTT); type: cell-based; conditions: 5 μM Aβ1-40, 6.5 μM-150 μM D-Trp-Aib, 24 hr, pre-incubated 21 days
Experimental: Prior to incubation with the PC-12 cells, 5× concentrated Aβ1-40 (25 μM) and 5× concentrated D-Trp-Aib were pre-incubated for 21 days.
Cell viability—The MTT-assay is a very sensitive assay measuring the mitochondrial dehydrogenase activity in viable cells. Following incubation, MTT reduction assay was undertaken according to the method described by Mosmann, [J. Immunol. Meth, 55-63 (1983)], cell viability was calculated by subtracting Aβ1-40 samples absorbance from non-Aβ1-40 controls containing the same D-Trp-Aib concentrations.

[1] = Membrane permeability in Caco-2 cell monolayer; type: in vitro ADME; conditions: human, apical to basolateral, read-out: recovery at the experimental end point
Experimental: Membrane permeability of D-Trp-Aib as studied in Caco-2 cells—The CaCo-2 system is based on the intestinal properties of the Caco-2 cells (ATCC Accession No. HTB-37), which preserved the polarity that is seen in the intestinal wall—an apical brush border that faces the intestinal lumen and a basolateral side that faces the body. After initial culturing (37° C. in an atmosphere of 5% CO2 and 100% humidity; medium: D-glucose DMEM supplemented with 1% Lglutamine, 1% nonessential amino acids, 1% sodium pyruvate, 1% penicillinstreptomycin, and 10% fetal bovine serum), cells were harvested and grown (14 days) on polycarbonate membranes, on which they formed a tight monolayer, (width of one cell, as in the intestine) allowing specific compounds to penetrate. […] D-Trp-Aib membrane permeability of the Caco-2 cell monolayer was assessed at concentrations of 0.2 mM and 1 mM, and compared to the standards propranolol (1 mM/apical buffer-see below) and ^3H-mannitol (5.26 Ci/mmole apical buffer—see below), known to pass via transcellular and paracellular routes, respectively. […] Substance samples and Propranolol standard were analyzed using HPLC. ^3H-Mannitol samples were subjected to analysis by liquid scintillation counting in a Packard TopCount NXT. […]

CYP450 2C9 = CYP450 2C9 (Homo sapiens, UniProt P11712); assay: Human CYP450 screen 2C9; type: in vitro ADME
Chain of CYP450 2C9 (P11712 whole entry): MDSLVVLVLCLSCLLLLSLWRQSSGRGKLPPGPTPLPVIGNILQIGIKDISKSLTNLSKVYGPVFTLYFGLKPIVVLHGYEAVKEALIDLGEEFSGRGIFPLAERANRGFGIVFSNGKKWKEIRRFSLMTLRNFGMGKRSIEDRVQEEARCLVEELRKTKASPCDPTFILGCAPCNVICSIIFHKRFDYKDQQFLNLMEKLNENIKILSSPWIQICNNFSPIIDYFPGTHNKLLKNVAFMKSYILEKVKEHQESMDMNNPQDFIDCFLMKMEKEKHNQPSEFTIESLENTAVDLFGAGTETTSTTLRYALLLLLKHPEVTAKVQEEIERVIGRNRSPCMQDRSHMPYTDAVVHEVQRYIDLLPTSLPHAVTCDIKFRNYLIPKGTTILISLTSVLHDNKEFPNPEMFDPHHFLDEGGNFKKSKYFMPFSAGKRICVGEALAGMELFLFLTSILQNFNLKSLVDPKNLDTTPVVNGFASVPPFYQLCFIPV
Source text: For the metabolic stability assay, Human cytochrom P450 (CYP450) screens were used. The cytochrom P450 isoenzymes, which are located in the intestines, liver, lung, kidney and brain, are involved in important drug interactions. Drug metabolism occurs in two phases—Phase I involves oxidation, reduction, and hydrolysis. Phase II involves synthesis and conjugation. The CYP 450 isoenzymes are involved in Phase I oxidative reactions. CYP 450 interactions generally result from one of two processes—Induction, where a substance stimulates the synthesis of the enzyme and metabolic capacity is increased, and inhibition, where competitive binding at an enzyme's binding site(s) occurs. A drug with a high affinity for an enzyme will slow the metabolism of any low affinity drug. CYP 3A3/4 is the most abundant CYP 450 isoenzyme in humans and is responsible for the metabolism of the widest range of drugs/substances. (CYP450) screens used were 1A2, 2C9, 2C19, 2D6 and 3A4.

[2] = Serum stability, mouse serum (HPLC); type: in vitro ADME; conditions: 37° C., 2 and 5 hours
Source text: (§1) D-Trp-Aib serum stability—Regardless of administration route, all drugs penetrate and distribute in the body via the blood system. This milieu is based not only on cells and buffering compounds, but also on proteins, carbohydrates, lipid-protein micelles, etc. Serum proteins mainly contain carrier proteins, such as albumin, but also contain many enzymes that might treat the drug as a substrate. Thus, the susceptibility of any drug entering this environment should be evaluated. The stability of D-Trp-Aib spiked into serum was evaluated by analysis of intact sample concentrations at different time points. D-Trp-Aib (250 μg/ml PBS) was incubated with mouse (Harlan Biotech, Israel) or human (obtained from Sheba medical center, Tel Hashomer, Israel) sera or PBS (1:1, 37° C.), and aliquots were analyzed by HPLC analysis at times 0, 2 and 5 hrs. The reaction was stopped and precipitation was effected by the addition of acetonitrile (Baker, Phillipsburg N.J.) and 10% TCA. Following centrifugation (10,000 g, 5 min), Supernatant was transferred to HPLC analysis. Mean amounts of D-Trp-Aib (μg)±s.e.m. were calculated by an internal calibration curve. […]

[3] = Serum stability, human serum (HPLC); type: in vitro ADME; conditions: 37° C., 2 and 5 hours
Source text: as §1

[4] = inhaled or intranasal, 20 mg/kg

CC(C)(NC(=O)[C@H](N)Cc1c[nH]c2ccccc12)C(=O)O [D-Trp-Aib] (H-[dW]-[Aib]-OH)
half-life (in vivo): 1.1 to 1.2 h | bioavailability (in vivo; inhaled or intranasal): 65.5% | AUC(0-inf) (in vivo; [4]): 11400 ng·h/mL | AUC(0-t) (in vivo; [4]): 10600 ng·h/mL | MRT (in vivo; [4]): 0.98 h | half-life (in vivo; [4]): 1.29 h | AUC(0-inf) (in vivo; iv, 50 mg/kg): 40600 ng·h/mL | AUC(0-t) (in vivo; iv, 50 mg/kg): 40600 ng·h/mL | MRT (in vivo; iv, 50 mg/kg): 0.44 h | Vd (in vivo; iv, 50 mg/kg): 2.16 L/kg | bioavailability (in vivo; iv, 50 mg/kg): 100% | clearance (in vivo; iv, 50 mg/kg): 20.5 mL/min/kg | half-life (in vivo; iv, 50 mg/kg): 1.22 h | AUC(0-inf) (in vivo; po, 50 mg/kg): 15700 ng·h/mL | AUC(0-t) (in vivo; po, 50 mg/kg): 15700 ng·h/mL | Cmax (in vivo; po, 50 mg/kg): 9810 ng/mL | MRT (in vivo; po, 50 mg/kg): 1.29 h | Tmax (in vivo; po, 50 mg/kg): 1 h | bioavailability (in vivo; po, 50 mg/kg): 38.7% | half-life (in vivo; po, 50 mg/kg): 1.07 h | inhibition of β-amyloid cytotoxicity (MTT viability) (PC-12 cells): highly effective in inhibiting the cytotoxicity of β-amyloid | recovery at 90 min ([1]; 0.2 mM): 37.9% | recovery at 90 min, 1 mM ([1]; 1 mM): 19.3% | activity in CYP450 screen (CYP450 2C9): None of the results met significance criteria | D-Trp-Aib concentration after incubation in serum [2]: No decrease | D-Trp-Aib concentration after incubation in serum [3]: No decrease
